Measurements reported in patent US20250320193A1, “OXOISOINDOLINYL SUBSTITUTED PIPERIDINEDIONE DERIVATIVE AND USE THEREOF” (GLUETACS THERAPEUTICS (SHANGHAI) CO., LTD., priority 2022, published 2025).

Key:
[1] = target: human Cereblon WT GST-tagged protein (Homo sapiens (Human), UniProt Q96SW2); assay: CRBN-binding affinity, HTRF (CEREBLON BINDING kit, CISBIO); settings: HTRF inhibitory activity
In short: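 HTRF competition format: test compound displaces Thalidomide-Red from GST-tagged human Cereblon WT, detected with a Eu-labelled anti-GST antibody. Percent CRBN binding inhibition was derived from the 620 nm signal, normalized to solvent-control and protein-free blank wells.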

IKZF1 = IKZF1 (Homo sapiens (Human), UniProt Q13422+Q96SW2); assay: Western blot, substrate protein expression in hPBMC: IKZF1; type: cell-based; settings: for substrate protein remaining % IKZF1: hPBMC, compound 500 nM, 24 hours, Western blot
Sequence of IKZF1 (Q13422 whole entry): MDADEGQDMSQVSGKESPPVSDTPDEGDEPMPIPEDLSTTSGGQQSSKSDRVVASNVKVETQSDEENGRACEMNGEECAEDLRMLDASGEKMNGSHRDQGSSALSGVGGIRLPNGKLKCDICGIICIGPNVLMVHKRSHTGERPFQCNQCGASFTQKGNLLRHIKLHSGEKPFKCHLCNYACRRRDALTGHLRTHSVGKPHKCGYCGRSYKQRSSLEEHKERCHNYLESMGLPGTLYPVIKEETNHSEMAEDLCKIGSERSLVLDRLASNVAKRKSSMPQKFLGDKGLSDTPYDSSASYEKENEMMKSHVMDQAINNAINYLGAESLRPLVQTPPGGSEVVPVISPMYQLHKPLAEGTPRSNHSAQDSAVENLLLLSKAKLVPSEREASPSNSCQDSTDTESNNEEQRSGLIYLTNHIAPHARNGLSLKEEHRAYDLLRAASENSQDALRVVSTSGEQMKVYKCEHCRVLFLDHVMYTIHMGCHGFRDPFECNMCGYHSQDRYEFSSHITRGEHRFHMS
Sequence of IKZF1 (Q96SW2 whole entry): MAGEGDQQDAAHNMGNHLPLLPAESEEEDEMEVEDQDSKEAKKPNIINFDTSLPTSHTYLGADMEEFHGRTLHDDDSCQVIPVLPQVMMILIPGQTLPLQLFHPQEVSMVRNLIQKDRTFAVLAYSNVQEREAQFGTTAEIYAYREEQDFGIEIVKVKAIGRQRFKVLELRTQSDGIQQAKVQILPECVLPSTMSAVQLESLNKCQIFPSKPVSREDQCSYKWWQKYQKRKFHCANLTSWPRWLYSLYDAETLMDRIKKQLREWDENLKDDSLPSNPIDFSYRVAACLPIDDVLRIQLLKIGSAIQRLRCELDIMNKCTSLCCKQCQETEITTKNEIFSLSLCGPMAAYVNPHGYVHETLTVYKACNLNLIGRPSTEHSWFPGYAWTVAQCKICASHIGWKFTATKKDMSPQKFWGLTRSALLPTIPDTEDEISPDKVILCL
Sequence of IKZF1 (Q16531 whole entry partner): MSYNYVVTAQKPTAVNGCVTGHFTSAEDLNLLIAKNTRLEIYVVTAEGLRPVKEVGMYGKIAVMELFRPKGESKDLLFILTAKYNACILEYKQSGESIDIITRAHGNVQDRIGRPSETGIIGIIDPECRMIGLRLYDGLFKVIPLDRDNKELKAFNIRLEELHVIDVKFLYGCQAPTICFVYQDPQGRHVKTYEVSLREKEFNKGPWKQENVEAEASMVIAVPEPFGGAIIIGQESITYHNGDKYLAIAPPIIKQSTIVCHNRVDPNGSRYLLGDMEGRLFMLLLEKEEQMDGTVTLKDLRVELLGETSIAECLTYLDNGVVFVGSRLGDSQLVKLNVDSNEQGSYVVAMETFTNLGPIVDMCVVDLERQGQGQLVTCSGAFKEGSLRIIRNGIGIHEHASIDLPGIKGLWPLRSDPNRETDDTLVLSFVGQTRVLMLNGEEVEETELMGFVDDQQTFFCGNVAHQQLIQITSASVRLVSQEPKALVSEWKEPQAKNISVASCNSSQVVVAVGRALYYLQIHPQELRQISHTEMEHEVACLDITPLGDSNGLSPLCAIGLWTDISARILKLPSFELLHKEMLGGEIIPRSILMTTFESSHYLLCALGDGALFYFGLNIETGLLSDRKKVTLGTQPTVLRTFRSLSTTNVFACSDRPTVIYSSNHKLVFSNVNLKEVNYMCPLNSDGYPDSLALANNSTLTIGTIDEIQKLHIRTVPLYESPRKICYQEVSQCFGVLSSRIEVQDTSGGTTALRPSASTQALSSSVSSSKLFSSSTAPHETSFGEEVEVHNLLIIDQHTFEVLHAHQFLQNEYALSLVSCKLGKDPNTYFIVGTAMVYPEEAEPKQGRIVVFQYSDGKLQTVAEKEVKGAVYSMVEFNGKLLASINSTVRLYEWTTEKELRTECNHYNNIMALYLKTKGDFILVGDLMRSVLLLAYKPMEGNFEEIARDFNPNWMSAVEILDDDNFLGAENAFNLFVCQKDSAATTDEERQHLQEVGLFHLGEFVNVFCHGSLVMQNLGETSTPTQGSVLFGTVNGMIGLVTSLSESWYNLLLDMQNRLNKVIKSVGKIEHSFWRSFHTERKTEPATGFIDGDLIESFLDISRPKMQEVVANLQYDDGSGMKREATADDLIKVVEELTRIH
In short: (§1)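 hPBMC, 1×10^6 cells/mL, 24 h compound exposure; RIPA lysis, BCA protein assay, SDS-PAGE, NC membrane immunoblot. Densitometry vs internal control → % protein remaining; degradation % = 100% − remaining; DC50 = conc. at 50% of DMSO band signal.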

IKZF3 = IKZF3 (Homo sapiens (Human), UniProt Q96SW2+Q9UKT9); assay: Western blot, substrate protein expression in hPBMC: IKZF3; type: cell-based; settings: for substrate protein remaining % IKZF3: hPBMC, compound 500 nM, 24 hours, Western blot
Sequence of IKZF3 (Q9UKT9 whole entry): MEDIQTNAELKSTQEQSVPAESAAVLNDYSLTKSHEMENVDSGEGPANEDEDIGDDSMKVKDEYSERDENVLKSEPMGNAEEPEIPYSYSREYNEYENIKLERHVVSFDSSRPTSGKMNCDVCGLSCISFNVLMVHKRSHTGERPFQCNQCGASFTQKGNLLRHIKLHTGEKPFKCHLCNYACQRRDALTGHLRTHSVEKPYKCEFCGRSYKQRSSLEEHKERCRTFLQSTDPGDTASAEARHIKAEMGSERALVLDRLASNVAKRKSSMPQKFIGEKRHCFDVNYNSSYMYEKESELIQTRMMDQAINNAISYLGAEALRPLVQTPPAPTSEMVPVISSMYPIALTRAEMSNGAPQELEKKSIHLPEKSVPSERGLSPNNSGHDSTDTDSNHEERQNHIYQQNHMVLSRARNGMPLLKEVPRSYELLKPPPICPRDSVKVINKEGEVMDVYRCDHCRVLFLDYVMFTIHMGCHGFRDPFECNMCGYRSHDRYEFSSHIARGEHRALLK
Sequence of IKZF3 (Q96SW2 whole entry): as the sequence (Q96SW2 whole entry) above
Sequence of IKZF3 (Q16531 whole entry partner): as the sequence (Q16531 whole entry partner) above
In short: as §1

GSPT1 = GSPT1 (Homo sapiens (Human), UniProt P15170+Q96SW2); assay: Western blot, substrate protein expression in hPBMC: GSPT1; type: cell-based; settings: for substrate protein remaining % GSPT1: hPBMC, compound 500 nM, 24 hours, Western blot
Sequence of GSPT1 (P15170 whole entry): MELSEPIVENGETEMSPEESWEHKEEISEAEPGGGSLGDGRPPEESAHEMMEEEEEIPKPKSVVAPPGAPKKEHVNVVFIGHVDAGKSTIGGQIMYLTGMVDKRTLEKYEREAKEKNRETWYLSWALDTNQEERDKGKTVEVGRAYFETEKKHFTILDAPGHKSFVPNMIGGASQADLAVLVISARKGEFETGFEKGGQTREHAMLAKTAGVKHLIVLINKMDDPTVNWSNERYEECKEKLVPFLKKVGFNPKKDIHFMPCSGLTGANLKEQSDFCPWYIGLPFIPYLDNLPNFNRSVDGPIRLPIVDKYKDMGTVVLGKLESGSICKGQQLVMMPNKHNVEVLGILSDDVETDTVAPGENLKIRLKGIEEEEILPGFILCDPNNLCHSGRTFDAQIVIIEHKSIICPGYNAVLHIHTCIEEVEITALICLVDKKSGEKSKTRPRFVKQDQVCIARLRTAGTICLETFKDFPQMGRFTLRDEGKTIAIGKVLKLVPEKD
Sequence of GSPT1 (Q96SW2 whole entry): as the sequence (Q96SW2 whole entry) above
Sequence of GSPT1 (Q16531 whole entry partner): as the sequence (Q16531 whole entry partner) above
In short: as §1

[2] = system: H146 cells (human small cell lung carcinoma cells); assay: Tumor cell proliferation inhibition, CCK-8; type: cell-based; settings: NCI-H146, H146 cells, CCK-8, read-out: inhibitory activity (IC50, nM) H146
Method: (§2) The tumor cells used herein were cultured in a cell culture medium listed in table 2 at 37° C. in an incubator with 5% CO2. Prior to experimentation, all cells used were correctly identified by STR profiling, and tested negative for mycoplasma through routine screenings.
(§3) IC50 values of the compounds of the present disclosure (including the compounds in Table 1 and the Examples 1-305 compounds) were measured using the Meilun Cell Counting Kit-8 kit from Dalian Meilun Biotech Co., Ltd. Assay details are as follows: tumor cells were seeded in a 96-well plate at a density listed in Table 5. After 24 h, 100 μL of the inoculated cells were treated with 0.5 μL of the compounds of the present disclosure (including the compounds in Table 1 and the Examples 1-305 compounds) at 10 different successively decreasing concentrations (starting at the highest concentration of 10 μM; 5-fold serial dilutions). After the cells were treated with the compounds of the present disclosure for a period of time, the cell viability detection reagent was added to the culture medium for cell viability assessment according to the instructions provided with the CCK-8 kit. […] The growth inhibition of the compounds of the present disclosure on cells was plotted by Prism Graphpad software, and the IC50 values of the compounds of the present disclosure were calculated therefrom.

[3] = system: MDA-MB-231 cells (human breast adenocarcinoma cells); assay: Tumor cell proliferation inhibition, CCK-8; type: cell-based; settings: MDA-MB-231 cells, CCK-8, read-out: inhibitory activity (IC50, nM) MDA-MB-231
Method: as §2, §3

[4] = system: MM.1S cells (human multiple myeloma cells); assay: Tumor cell proliferation inhibition, CCK-8; type: cell-based; settings: MM1.S, MM.1S cells, CCK-8, read-out: inhibitory activity (IC50, nM) MM.1S
Method: as §2, §3

[5] = system: TMD8 cells (human diffuse large B-cell lymphoma cells); assay: Tumor cell proliferation inhibition, CCK-8; type: cell-based; settings: TMD8 cells, CCK-8, read-out: inhibitory activity (IC50, nM) TMD8
Method: as §2, §3

Sequence of human Cereblon WT GST-tagged protein (Q96SW2 whole entry): as the sequence (Q96SW2 whole entry) above

Structure (SMILES)	IC50 [1]	IC50 [2]	IC50 [3]	IC50 [4]	IC50 [5]	substrate protein remaining % IKZF1 (IKZF1)	concentration at which IKZF1 protein was significantly degraded (Western blot, FIG. 1) (IKZF1; hPBMCs)	substrate protein remaining % IKZF3 (IKZF3)	concentration at which IKZF3 protein was significantly degraded (Western blot, FIG. 1) (IKZF3; hPBMCs)	substrate protein remaining % GSPT1 (GSPT1)	concentration at which GSPT1 protein was clearly/significantly degraded (Western blot, FIG. 1) (GSPT1; hPBMCs)
O=C1CCC(N2Cc3cc(CN4CCC(N(c5ccccc5)c5ccccn5)CC4)c(F)cc3C2=O)C(=O)N1 (centres unmarked) [GT-05857, 3-(6-fluoro-1-oxo-5-((4-(phenyl(pyridin-2-yl)amino)piperidin-1-yl)methyl)isoindolin-2-yl)piperidine-2,6-dione]	< 0.5 µM	1 to 10 nM	1 to 10 nM	< 1 nM	1 to 10 nM	A (A represents 0% ≤ substrate protein remaining % ≤ 50%)	below 50 nM	A (A represents 0% ≤ substrate protein remaining % ≤ 50%)	below 50 nM	A (A represents 0% ≤ substrate protein remaining % ≤ 50%)	below 50 nM
O=C1CCC(N2Cc3cc(N4C5CCC4CN(C(c4ccccc4)c4ccccc4)C5)ccc3C2=O)C(=O)N1 (centres unmarked) [GT-05866, 3-(5-(3-benzhydryl-3,8-diazabicyclo[3.2.1]octan-8-yl)-1-oxoisoindolin-2-yl)piperidine-2,6-dione]	0.5 to 1 µM	10 to 50 nM	10 to 50 nM	1 to 10 nM	50 to 100 nM	B (B represents substrate protein remaining % > 50%)		A (A represents 0% ≤ substrate protein remaining % ≤ 50%)		A (A represents 0% ≤ substrate protein remaining % ≤ 50%)	
O=C1CCC(N2Cc3c(ccc(CN4CCN(C(c5ccccc5F)c5ccccc5F)CC4)c3F)C2=O)C(=O)N1 (centres unmarked) [GT-06085, 3-(5-((4-(bis(2-fluorophenyl)methyl)piperazin-1-yl)methyl)-4-fluoro-1-oxoisoindolin-2-yl)piperidine-2,6-dione]	0.5 to 1 µM	10 to 50 nM	10 to 50 nM	1 to 10 nM	10 to 50 nM	A (A represents 0% ≤ substrate protein remaining % ≤ 50%)		A (A represents 0% ≤ substrate protein remaining % ≤ 50%)		A (A represents 0% ≤ substrate protein remaining % ≤ 50%)	
O=C1CCC(N2Cc3cc(CN4CCN(C(c5ccccc5F)c5ccccc5F)CC4)c(F)cc3C2=O)C(=O)N1 (centres unmarked) [GT-06086, 3-(5-((4-(bis(2-fluorophenyl)methyl)piperazin-1-yl)methyl)-6-fluoro-1-oxoisoindolin-2-yl)piperidine-2,6-dione]	0.5 to 1 µM	10 to 50 nM	10 to 50 nM	1 to 10 nM	10 to 50 nM	A (A represents 0% ≤ substrate protein remaining % ≤ 50%)		A (A represents 0% ≤ substrate protein remaining % ≤ 50%)		A (A represents 0% ≤ substrate protein remaining % ≤ 50%)	
O=C1CCC(N2Cc3cc(CN4CCN(C(c5ccccc5F)c5ccccc5F)CC4)cc(F)c3C2=O)C(=O)N1 (centres unmarked) [GT-06087, 3-(5-((4-(bis(2-fluorophenyl)methyl)piperazin-1-yl)methyl)-7-fluoro-1-oxoisoindolin-2-yl)piperidine-2,6-dione]	< 0.5 µM	50 to 100 nM	100 to 500 nM	10 to 50 nM	100 to 500 nM	B (B represents substrate protein remaining % > 50%)		B (B represents substrate protein remaining % > 50%)		A (A represents 0% ≤ substrate protein remaining % ≤ 50%)	
O=C1CCC(N2Cc3cc(C(=O)N4CCN(C(c5cccc(F)c5)c5cccc(F)c5)CC4)ccc3C2=O)C(=O)N1 (centres unmarked) [GT-06146, 3-(5-(4-(bis(3-fluorophenyl)methyl)piperazine-1-carbonyl)-1-oxoisoindolin-2-yl)piperidine-2,6-dione]	< 0.5 µM	100 to 500 nM	100 to 500 nM	10 to 50 nM	500 to 1000 nM	A (A represents 0% ≤ substrate protein remaining % ≤ 50%)		A (A represents 0% ≤ substrate protein remaining % ≤ 50%)		A (A represents 0% ≤ substrate protein remaining % ≤ 50%)	
O=C1CCC(N2Cc3cc(CN4CCN(C(c5cc(F)cc(F)c5)c5cc(F)cc(F)c5)CC4)ccc3C2=O)C(=O)N1 (centres unmarked) [GT-06387, 3-(5-((4-(bis(3,5-difluorophenyl)methyl)piperazin-1-yl)methyl)-1-oxoisoindolin-2-yl)piperidine-2,6-dione]	1 to 1.9 µM	1 to 10 nM	1 to 10 nM	< 1 nM	1 to 10 nM	B (B represents substrate protein remaining % > 50%)		A (A represents 0% ≤ substrate protein remaining % ≤ 50%)		A (A represents 0% ≤ substrate protein remaining % ≤ 50%)	

The next lines start with results.

IC50 [1]	IC50 [2]	IC50 [3]	IC50 [4]	IC50 [5]	Structure (SMILES)	substrate protein remaining % IKZF1 (IKZF1)	concentration at which IKZF1 protein was significantly degraded (Western blot, FIG. 1) (IKZF1; hPBMCs)	substrate protein remaining % IKZF3 (IKZF3)	concentration at which IKZF3 protein was significantly degraded (Western blot, FIG. 1) (IKZF3; hPBMCs)	substrate protein remaining % GSPT1 (GSPT1)	concentration at which GSPT1 protein was clearly/significantly degraded (Western blot, FIG. 1) (GSPT1; hPBMCs)
< 0.5 µM	10 to 50 nM	50 to 100 nM	1 to 10 nM	500 to 1000 nM	O=C1CCC(N2Cc3cc(CN4C[C@@H]5C[C@H]4CN5C(c4ccccc4)c4ccccc4)c(F)cc3C2=O)C(=O)N1 (stereo partly drawn) [GT-05894, 3-(5-(((1S,4S)-5-benzhydryl-2,5-diazabicyclo[2.2.1]heptan-2-yl)methyl)-6-fluoro-1-oxoisoindolin-2-yl)piperidine-2,6-dione]	A (A represents 0% ≤ substrate protein remaining % ≤ 50%)		B (B represents substrate protein remaining % > 50%)		A (A represents 0% ≤ substrate protein remaining % ≤ 50%)	
< 0.5 µM	10 to 50 nM	10 to 50 nM	1 to 10 nM	10 to 50 nM	O=C1CCC(N2Cc3cc(CN4CCN(C5c6ccccc6-c6ccccc65)CC4)ccc3C2=O)C(=O)N1 (centres unmarked) [GT-05907, 3-(5-((4-(9H-fluoren-9-yl)piperazin-1-yl)methyl)-1-oxoisoindolin-2-yl)piperidine-2,6-dione]	A (A represents 0% ≤ substrate protein remaining % ≤ 50%)		A (A represents 0% ≤ substrate protein remaining % ≤ 50%)		A (A represents 0% ≤ substrate protein remaining % ≤ 50%)	
< 0.5 µM	10 to 50 nM	10 to 50 nM	1 to 10 nM	10 to 50 nM	O=C1CCC(N2Cc3cc(CN4CCN(C(c5ccccc5F)c5ccccc5F)CC4)ccc3C2=O)C(=O)N1 (centres unmarked) [GT-06084, 3-(5-((4-(bis(2-fluorophenyl)methyl)piperazin-1-yl)methyl)-1-oxoisoindolin-2-yl)piperidine-2,6-dione]	A (A represents 0% ≤ substrate protein remaining % ≤ 50%)		A (A represents 0% ≤ substrate protein remaining % ≤ 50%)		A (A represents 0% ≤ substrate protein remaining % ≤ 50%)	
